Laboratory results taken from patent US20210015830A1, “COMPOSITION FOR INHIBITING REACTIVE OXYGEN SPECIES PRODUCTION” (SUNTORY HOLDINGS LIMITED, priority 2017, published 2021).
Read-outs that look alike come from different tables or passages of the source.

Experiments:
NADPH oxidase (NOX) = target: T1, NADPH oxidase (NOX) (Homo sapiens, UniProt P04839); assay: Measurement of NOX inhibitory activity in differentiated HL-60 cells (PMA-activated superoxide production, WST-1 formazan absorbance at 450 nm); format: cell-based; conditions: for Inhibitory activity ratio: 3-acetyl triterpenic acid versus the triterpenic acid without acetyl group, formula (i)
T1 construct: HL-60 cells were differentiated into NOX-expressing granulocytes; endogenous in cells; host or cells: HL-60 cells differentiated into granulocytes with 1% DMSO
T1 sequence (P04839 1-570): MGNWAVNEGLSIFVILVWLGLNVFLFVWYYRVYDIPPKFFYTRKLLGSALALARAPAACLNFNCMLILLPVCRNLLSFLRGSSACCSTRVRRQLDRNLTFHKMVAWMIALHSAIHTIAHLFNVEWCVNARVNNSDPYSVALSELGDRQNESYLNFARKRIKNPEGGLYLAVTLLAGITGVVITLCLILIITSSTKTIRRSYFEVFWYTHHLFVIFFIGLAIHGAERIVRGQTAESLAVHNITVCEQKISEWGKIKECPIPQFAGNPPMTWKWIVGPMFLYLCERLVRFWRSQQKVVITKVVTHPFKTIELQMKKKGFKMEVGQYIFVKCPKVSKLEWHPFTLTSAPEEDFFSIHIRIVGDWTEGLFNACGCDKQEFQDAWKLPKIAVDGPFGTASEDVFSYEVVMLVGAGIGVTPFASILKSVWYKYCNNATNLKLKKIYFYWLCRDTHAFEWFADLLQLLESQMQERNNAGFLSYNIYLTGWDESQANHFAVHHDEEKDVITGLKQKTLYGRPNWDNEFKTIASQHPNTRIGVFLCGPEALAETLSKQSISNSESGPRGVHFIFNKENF
T1 sequence (P13498 1-195 partner): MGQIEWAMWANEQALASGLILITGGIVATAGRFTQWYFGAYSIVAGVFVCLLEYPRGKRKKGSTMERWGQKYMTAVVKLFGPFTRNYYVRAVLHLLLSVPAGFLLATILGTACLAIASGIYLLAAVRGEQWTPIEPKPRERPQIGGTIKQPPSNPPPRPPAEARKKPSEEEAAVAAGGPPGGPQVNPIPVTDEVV
From the text: It is known that undifferentiated human myeloid leukemia HL-60 cells have an ability to proliferate, but differentiate into mature granulocytes by adding DMSO (dimethyl sulfoxide), retinoic acid, or the like and lose their proliferative ability. Mature HL-60 cells express NOX that serves as an indicator of differentiation. NOX can be used as an indicator for evaluating NOX inhibitory activity.
HL-60 cells were differentiated into NOX-expressing granulocytes by the following method.
Then, the suspension was dispensed into cell culture dishes (100 mm) so as to be 15 mL each, and the cells were cultured in a CO2 incubator (37° C.) for 3 days.
The differentiated HL-60 cells were used to measure NOX inhibitory activity as will be described below.
WST-1 (2-(4-iodophenyl)-3-(4-nitrophenyl)-5-(2,4-disulfophenyl)-2H-tetrazolium, monosodium salt) was dissolved in a D-MEM medium so as to be 0.8 mg/mL, and thus a WST-1 solution was prepared. WST-1 reacts with superoxide and produces yellow formazan. Yellow formazan absorbs a wavelength of 450 nm, and, therefore, the amount of yellow formazan can be measured by measuring absorbance at a wavelength of 450 nm. Also, the amount of yellow formazan produced is proportional to the amount of superoxide during the reaction, and, therefore, the amount of superoxide can be measured by measuring the amount of yellow formazan produced.
PMA (phorbol 12-myristate 13-acetate) was dissolved in a D-MEM medium so as to be 4 μM, and thus a PMA solution was prepared.
PMA is known to function to activate NOX and causes superoxide production.
The differentiated HL-60 cells were collected by centrifugation, and suspended in a D-MEM medium containing neither FBS nor phenol red so as to be 5×10^6 cells/mL.
The cell suspension was added into a 96-well microplate so as to be 25 μL per well.
Next, 25 μL of the WST-1 solution prepared as described above was added to the wells.
After adding the solutions, the cell suspensions were stirred.
Thereafter, 25 μL of the prepared PMA solution was added (a final PMA concentration in the medium being 1 μM) to activate NOX and carry out a reaction at 37° C. for 60 minutes.
Then, by measuring absorbance at a wavelength of 450 nm, the amount of yellow formazan produced and thus the amount of superoxide produced by NOX were measured.
Inhibitory activity ratio=(IC50 of triterpenic acid having acetyl group)/(IC50 of triterpenic acid without acetyl group) (i)
Based on the obtained measurement results, the IC50 (μg/mL) of fraction 1 and fraction 2 was determined.
Moreover, the inhibitory activity ratio of triterpenic acid having an acetyl group in fraction 2 to triterpenic acid without an acetyl group in fraction 1 was calculated using formula (i).

[1] = test system: Senescent Accelerated Model Prone 10 (SAMP10) mouse; assay: Brain function evaluation by passive avoidance test (step-through test) in senescence accelerated model; format: in vivo; conditions: SAMP10 mice, AIN-93M containing 0.006% ursolic acid or 0.002% acetylursolic acid for 12 weeks, evaluated at 11 months old
Method: The effect of inhibiting a decline in brain function of the Aronia extract was evaluated using the extract powder obtained in Example 2. The Senescent Accelerated Model Prone 10 (SAMP10) mouse, which is one of the senescence accelerated models, is known to show age-related decline in brain function at an early stage, and can be used to evaluate effects on an age-related decline in brain function. Accordingly, this animal was used to investigate the brain function ameliorating effect of the Aronia extract. A series of animal experiments were carried out based on a plan that complies with the animal welfare management law and other relevant laws and that is approved by the head of an organization after being reviewed by an institutional animal experiment committee.
(§1) As for a young (young control) group, SAMP10 mice at 8 weeks old were purchased, acclimated for 7 days, and received AIN-93M (manufactured by CLEA Japan Inc.) as a base food for 12 weeks, and then the brain function was evaluated at 4 months old (N=15). As for an elderly group, mice at 14 weeks old were purchased, acclimated until 8 months old, randomly divided into 2 groups, received AIN-93M or AIN-93M containing 0.02% Aronia extract for 12 weeks, and then the brain function was evaluated at 11 months old (an elderly control group (N=26), an elderly Aronia received group (N=18)). The food was changed once a week, and the food intake and the body weight were measured once a week.
A brain function was evaluated using a passive avoidance test (a step-through test). […]
Mice were placed in a light room (9 cm width, 11.5 cm depth, 15 cm height) of a step-through passive avoidance response tester (manufactured by Muromachi Kikai Co., Ltd.), then a door to a dark room (14 cm width, 17.5 cm depth, 15 cm height) was opened 30 seconds later, and the time until the mice entered the dark room (the light room latency) was measured. […]
A retention trial was performed the day after the acquisition trial. The same operation as the acquisition trial was performed on the mice, and the latency in light room was measured. […] The latency was measured up to 300 seconds, and evaluations were made such that the longer the latency of the retention trial is, the higher the memory function is.
The brain function ameliorating effects of ursolic acid and acetylursolic acid contained in Aronia were compared in terms of the recovery of light room latency. […] When the mice reached 11 months old, a brain function was evaluated according to the method of Reference Example 1 (0.006% ursolic acid received group (N=8), and 0.002% acetylursolic acid received group (N=10)).

[2] = Body weight and food intake of SAMP10 mice during 12-week feeding; format: in vivo, mouse; conditions: AIN-93M containing 0.006% ursolic acid or 0.002% acetylursolic acid for 12 weeks
Method: as §1
The brain function ameliorating effects of ursolic acid and acetylursolic acid contained in Aronia were compared in terms of the recovery of light room latency. SAMP10 mice at 14 weeks old were purchased, acclimated until 8 months old, then randomly divided into two groups, and received AIN-93M containing 0.006% ursolic acid or AIN-93M containing 0.002% acetylursolic acid for 12 weeks. When the mice reached 11 months old, a brain function was evaluated according to the method of Reference Example 1 (0.006% ursolic acid received group (N=8), and 0.002% acetylursolic acid received group (N=10)).

[3] = standard products, differentiated HL-60 cells, 1 μM PMA, 37° C., 60 minutes, read-out: IC50

| IC50 (NADPH oxidase (NOX); [3]) | SMILES | IC50 (NADPH oxidase (NOX)) | Inhibitory activity ratio (NADPH oxidase (NOX)) | latency in light room, acquisition trial [1] | latency in light room, retention trial [1] | body weight and food intake [2] |
| --- | --- | --- | --- | --- | --- | --- |
|  | CC(=O)O[C@H]1CC[C@]2(C)[C@H]3CC=C4[C@@H]5CC(C)(C)CC[C@]5(C(=O)O)CC[C@@]4(C)[C@]3(C)CC[C@H]2C1(C)C [3-Acetyloleanolic acid] | 10 µM | 4.4 times |  |  |  |
| 6 µM | CC(=O)O[C@H]1CC[C@]2(C)[C@H]3CC=C4[C@@H]5[C@@H](C)[C@H](C)CC[C@]5(C(=O)O)CC[C@@]4(C)[C@]3(C)CC[C@H]2C1(C)C [3-Acetylursolic acid] |  | 7.3 times | no difference between groups | stronger effect on ameliorating brain function than ursolic acid |  |
| 44 µM | C[C@H]1[C@H](C)CC[C@]2(C(=O)O)CC[C@]3(C)C(=CC[C@@H]4[C@@]5(C)CC[C@H](O)C(C)(C)[C@@H]5CC[C@]43C)[C@H]12 [Ursolic acid, reference compound] |  |  | no difference between groups | act to inhibit an age-related decline in brain function | no difference |
